Measurements published in PubChem BioAssay (NCI).
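Five concentrations, 48 hours, 96-well plates. The concentration for full growth arrest is given as TGI.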

What was measured:
Experiment in all cases: NCI anticancer screen, dose series, 48 h
CCRF-CEM leukemia = tested on: CCRF-CEM leukemia
K-562 leukemia = tested on: K-562 leukemia
IGROV1 ovarian = tested on: IGROV1 ovarian
LOX IMVI melanoma = tested on: LOX IMVI melanoma
NCI/ADR-RES ovarian = tested on: NCI/ADR-RES ovarian
OVCAR-5 ovarian = tested on: OVCAR-5 ovarian
KM12 colon = tested on: KM12 colon
NCI-H460 lung = tested on: NCI-H460 lung
HS 578T breast = tested on: HS 578T breast
OVCAR-3 ovarian = tested on: OVCAR-3 ovarian
MCF7 breast = tested on: MCF7 breast

Row | SMILES | TGI (CCRF-CEM leukemia) [µM] | TGI (K-562 leukemia) [µM] | TGI (IGROV1 ovarian) [µM] | TGI (LOX IMVI melanoma) [µM] | TGI (NCI/ADR-RES ovarian) [µM] | TGI (OVCAR-5 ovarian) [µM] | TGI (KM12 colon) [µM] | TGI (NCI-H460 lung) [µM] | TGI (HS 578T breast) [µM] | TGI (OVCAR-3 ovarian) [µM] | TGI (MCF7 breast) [µM]
1 | CSc1n[nH]c(N)c1C(=O)Nc1ccc(Cl)cc1 | > 100 | > 100 | > 100 | > 100 | > 100 | > 100 | > 100 | > 100 | > 100 | > 100 | > 100
2 | CCOn1cc(C[C@@]2(O)C(=O)OC3[C@@H](O)CO[C@@]32O)c2ccccc21 (some centres not stated) | > 100 | > 100 | > 100 | > 100 | > 100 | > 100 | > 100 | > 100 | > 100 | > 100 | > 100
3 | COc1ccc(C2CC(c3cc4c(C)c(C(=O)c5ccccc5)oc4cc3O)=Nc3ccccc3S2)cc1OC (configuration not stated) | > 100 | > 100 | > 100 | > 100 | > 100 | > 100 | > 34.8 | > 100 | > 100 | > 100 | > 100
4 | C=C(NC(=O)C(=C)NC(=O)c1csc(C2=NC3c4csc(n4)C4NC(=O)c5csc(n5)C(C(C)(O)C(C)O)NC(=O)C5CSC(=N5)/C(=C/C)NC(=O)C(C(C)O)NC(=O)c5csc(n5)C3(CC2)NC(=O)C(C)NC(=O)C(=C)NC(=O)C(=C)NC(=O)C(C(C)C)NC2C=Cc3c(C(C)O)cc(nc3C2O)C(=O)OC4C)n1)C(N)=O (configuration not stated) | 6.8 | > 48.3 | 58.9 | > 61.3 | > 100 | 28.2 | > 100 | 59.7 | > 100 | > 100 | > 26
5 | c1cc(-c2cscc2-c2ccsc2)cs1 | > 100 | > 100 | > 100 | > 100 | > 100 | > 100 | 38 | > 100 | 64.2 | 89.8 | > 100
6 | Fc1cccc(F)c1C1SCC2=Nc3ccccc3CN21 (configuration not stated) | > 100 | > 100 | > 100 | > 100 | 79.5 | > 100 | > 100 | > 100 | > 100 | 47.5 | > 100
7 | NC1=CN(CCCO)C2=N/C(=C\c3ccco3)C(=O)N12 | > 100 | > 100 | > 100 | > 100 | > 100 | > 100 | > 100 | > 100 | > 100 | > 100 | > 100
